Here are results for 6 molecules from the NIST ThermoML archive (doi:10.1021/acs.jced.5b00527).

± gives the expanded uncertainty stated by the source.

For data set [1] the following is noted: 298.15 K; 101.33 kPa; Liquid; Vibrating tube method.
Data set [2] is described as follows: refractive index (Na D-line) (dimensionless). As to conditions: 298.15 K; 101.33 kPa; Liquid; Standard Abbe refractometry.

For orientation: mass density means mass per unit of volume. For orientation: refractive index means the speed of light in vacuum divided by its phase velocity in the sample. In the case of `CC(C)C(=O)O` [2-methylpropanoic acid], the mass density in data set [1] is 941.63 ± 6 kg/m3. Besides, the refractive index in data set [2] came to 1.3899 ± 0.0041.

As for `CCCCO` [butan-1-ol], in data set [1], the mass density is 807.96 ± 6 kg/m3. The refractive index in data set [2] is listed as 1.3941 ± 0.0041.

As to `CCCC(=O)O` [butanoic acid], the mass density in data set [1] is given as 952.1 ± 6 kg/m3. In data set [2], the refractive index was 1.3981 ± 0.0041.

Regarding `CC(C)OC(C)C` [diisopropyl ether], the mass density in data set [1] was 723.8 ± 6 kg/m3. Further, in data set [2], the refractive index turned out to be 1.3674 ± 0.004.

For the molecule `CO` [methanol], the mass density in data set [1] stood at 791 ± 6 kg/m3. Also, the refractive index in data set [2] is listed as 1.3281 ± 0.0041.

Take `O` [water]: the refractive index in data set [2] came out at 1.3324 ± 0.0041.
